Results: ChEMBL document CHEMBL1122453, “Structure-activity relationships in the antiinflammatory steroids: a pattern-recognition approach” (1983)

Species: Homo sapiens
Assay: Potency relative to fluocinolone 16,17-acetonide in the human vasoconstictor test
Assay type: functional

SMILES | Potency
CCC(=O)O[C@]1(C(=O)CCl)[C@@H](C)C[C@H]2[C@@H]3CCC4=CC(=O)C=C[C@]4(C)[C@@]3(F)[C@@H](O)C[C@@]21C [CLOBETASOL PROPIONATE] | 1869
CCC(=O)O[C@]1(C(=O)CO)[C@@H](C)C[C@H]2[C@@H]3CCC4=CC(=O)C=C[C@]4(C)[C@@]3(F)[C@@H](O)C[C@@]21C | 190
CCC(=O)O[C@]1(C(C)=O)CCC2C3C[C@H](F)C4=CC(=O)C=CC4(C)[C@@]3(F)C(O)CC21C (some centres undefined) | 900
CCCC(=O)O[C@]1(C(=O)COC(=O)CC)CCC2C3C[C@H](F)C4=CC(=O)C=CC4(C)[C@@]3(F)C(O)CC21C (some centres undefined) | 1058

Species: Rattus norvegicus
Assay: Anti-inflammatory effect in rat granuloma assay, activity relative to hydrocortisone and hydrocortisone 21-acetate
Assay type: functional

SMILES | Potency
CC(=O)OCC(=O)[C@@]1(O)CCC2C3CCC4=CC(=O)CCC4(C)[C@@]3(Cl)C(O)CC21C (some centres undefined) | 3.5
CC1(C)O[C@@H]2CC3C4C[C@H](F)C5=CC(=O)CCC5(C)[C@@]4(F)C(O)CC3(C)[C@]2(C(=O)CO)O1 (some centres undefined) | 103
CC(=O)OCC(=O)C1CCC2C3CCC4=CC(=O)CCC4(C)C3C(O)=CC12C (centres undefined) | 0.2
CC(=O)OCC(=O)[C@@]1(O)CCC2C3C[C@H](Cl)C4=CC(=O)C=CC4(C)C3C(=O)CC21C (some centres undefined) | 4
CC(=O)OCC(=O)C1CCC2C3CCC4=CC(=O)CCC4(C)[C@@]3(F)C(O)CC12C (some centres undefined) | 2.7
C[C@H]1CC2C3CCC4=CC(=O)CCC4(C)C3C(O)CC2(C)[C@@]1(O)C(=O)CO (some centres undefined) | 4
CC(=O)OCC(=O)C1CCC2C3CCC4=CC(=O)[C@H](C)CC4(C)[C@@]3(F)C(O)CC12C (some centres undefined) | 2.4
CC12CCC(=O)C=C1[C@@H](Cl)CC1C3CC(O)[C@](O)(C(=O)CO)C3(C)CC(O)[C@@]12F (some centres undefined) | 50
CC(=O)OCC(=O)[C@@]1(O)CCC2C3CCC4=CC(=O)[C@H](C)CC4(C)C3C(O)CC21C (some centres undefined) | 4.5
C[C@@H]1CC2C3CCC4=CC(=O)C=CC4(C)C3[C@@H](O)CC2(C)C1C(=O)CO (some centres undefined) | 3
CC(=O)OCC(=O)[C@@]1(O)CCC2C3C[C@H](Cl)C4=CC(=O)CCC4(C)C3C(O)CC21C (some centres undefined) | 11
CC(=O)OCC(=O)[C@@]12OC(C)(C)O[C@@H]1CC1C3C[C@H](F)C4=CC(=O)C=CC4(C)C3C(O)CC12C (some centres undefined) | 20
CC(=O)OCC(=O)[C@@]1(O)[C@H](C)CC2C3C[C@H](F)C4=CC(=O)CCC4(C)[C@@]3(F)C(O)CC21C (some centres undefined) | 50
C[C@@H]1CC2C3CCC4=CC(=O)C=CC4(C)C3C(=O)CC2(C)[C@@]1(O)C(=O)CO (some centres undefined) | 13
C[C@@H]1CC2C3CCC4=CC(=O)CCC4(C)[C@@]3(F)C(O)CC2(C)[C@@]1(O)C(=O)CO (some centres undefined) | 36
C[C@H]1CC2C3CCC4=CC(=O)C=CC4(C)C3C(=O)CC2(C)[C@@]1(O)C(=O)CO (some centres undefined) | 26
C[C@@H]1CC2C3C[C@H](C)C4=CC(=O)C=CC4(C)[C@@]3(F)C(O)CC2(C)[C@@]1(O)C(=O)CO (some centres undefined) | 200
C[C@@H]1CC2(C)C(=CC1=O)CCC1C2C(=O)CC2(C)C1CC[C@]2(O)C(=O)CO (some centres undefined) | <0.07
C[C@H]1CC2C3CCC4=CC(=O)CCC4(C)C3C(=O)CC2(C)[C@@]1(O)C(=O)CO (some centres undefined) | 2
CC(=O)OCC(=O)[C@@]12OC(C)(C)O[C@@H]1CC1C3C[C@H](F)C4=CC(=O)CCC4(C)C3C(O)CC12C (some centres undefined) | 4
CC(=O)OCC(=O)[C@@]1(O)CCC2C3C[C@H](F)C4=CC(=O)C=CC4(C)C3C(O)CC21C (some centres undefined) | 20
CC(=O)OCC(=O)[C@@]1(O)CCC2C3CCC4=CC(=O)C=CC4(C)[C@@]3(F)C(O)CC21C (some centres undefined) | 14
C[C@H]1C[C@H]2[C@@H]3CCC4=CC(=O)C=C[C@]4(C)[C@H]3[C@@H](O)C[C@]2(C)[C@@]1(O)C(=O)CO | 23
CC12CCC(=O)C=C1[C@@H](F)CC1C3C[C@@H](O)[C@](O)(C(=O)CO)C3(C)CC(O)[C@@]12F (some centres undefined) | 15
CC(=O)OCC(=O)C1CCC2C3CCC4=CC(=O)[C@H](C)CC4(C)C3C(O)CC12C (some centres undefined) | 0.3

SMILES | Potency
CC(=O)OCC(=O)[C@@]1(O)CCC2C3C[C@H](F)C4=CC(=O)C=CC4(C)[C@@]3(F)C(O)CC21C (some centres undefined) | 200
CC(=O)OCC(=O)[C@@]1(O)CCC2C3C[C@H](F)C4=CC(=O)C=CC4(C)C3C(=O)CC21C (some centres undefined) | 20
C[C@@H]1C[C@H]2[C@@H]3CCC4=CC(=O)C=C[C@]4(C)[C@H]3[C@@H](O)C[C@]2(C)[C@@]1(O)C(=O)CO | 11.3
C[C@@H]1CC2C3CCC4=CC(=O)CCC4(C)C3C(O)CC2(C)[C@@]1(O)C(=O)CO (some centres undefined) | 1.4
CC(=O)OCC(=O)[C@@]1(O)CCC2C3C[C@H](Cl)C4=CC(=O)C=CC4(C)[C@@]3(F)C(O)CC21C (some centres undefined) | 27
CC(=O)OCC(=O)C1CCC2C3CCC4=CC(=O)[C@H](C)CC4(C)C3C(O)=CC12C (some centres undefined) | <0.01
CC(=O)OCC(=O)[C@@]1(O)[C@H](C)CC2C3C[C@H](F)C4=CC(=O)C=CC4(C)[C@@]3(F)C(O)CC21C (some centres undefined) | 120
C[C@H]1C[C@@H]2[C@H]([C@@H](O)C[C@@]3(C)[C@H]2CC[C@]3(O)C(=O)CO)[C@@]2(C)C=CC(=O)C=C12 (stereo in doubt; 68) [METHYLPREDNISOLONE] | 200
C[C@@H]1CC2C3CCC4=CC(=O)C=CC4(C)[C@@]3(Cl)C(O)CC2(C)[C@@]1(O)C(=O)CO (some centres undefined) | 60
CC12C=CC(=O)C=C1[C@@H](Cl)CC1C2C(O)CC2(C)C1CC[C@]2(O)C(=O)CO (some centres undefined) | 14
CC(=O)OCC(=O)[C@@]1(O)[C@H](C)CC2C3C[C@H](F)C4=CC(=O)CCC4(C)C3C(O)CC21C (some centres undefined) | 5
CC12C=CC(=O)C=C1CCC1C3CC[C@](O)(C(=O)CO)C3(C)CC(O)[C@@]12F (some centres undefined) | 17.7
CC(=O)OCC(=O)[C@@]1(O)CCC2C3CCC4=CC(=O)CCC4(C)[C@@]3(F)C(=O)CC21C (some centres undefined) | 10
CC(=O)OCC(=O)[C@@]1(O)CCC2C3C[C@H](F)C4=CC(=O)CCC4(C)C3C(=O)CC21C (some centres undefined) | 10
CC12CCC(=O)C=C1[C@@H](F)CC1C2C(O)CC2(C)C1C[C@@H](O)[C@]2(O)C(=O)CO (some centres undefined) | 5
C[C@]12CCC(=O)C=C1CC[C@@H]1[C@@H]2C(=O)C[C@@]2(C)[C@H]1CC[C@]2(O)C(=O)CO [CORTISONE] | 0.4
CC(=O)OCC(=O)[C@@]1(O)CC[C@H]2[C@@H]3CCC4=CC(=O)C=C[C@]4(C)[C@H]3C(=O)C[C@@]21C | 1
CC(=O)OCC(=O)[C@@]1(O)CCC2C3C[C@H](Cl)C4=CC(=O)CCC4(C)[C@@]3(F)C(=O)CC21C (some centres undefined) | 8
CC(=O)OCC(=O)[C@@]1(O)CCC2C3C[C@H](F)C4=CC(=O)CCC4(C)[C@@]3(F)C(O)CC21C (some centres undefined) | 50
C[C@@H]1CC2C3CCC4=CC(=O)C=CC4(C)[C@@]3(F)C(O)=CC2(C)[C@@]1(O)C(=O)CO (some centres undefined) | 140
CC(=O)OCC(=O)[C@@]1(O)CCC2C3C[C@H](Cl)C4=CC(=O)CCC4(C)[C@@]3(F)C(O)CC21C (some centres undefined) | 11
CC(=O)OCC(=O)[C@@]1(O)CC[C@H]2[C@@H]3CCC4=CC(=O)CC[C@]4(C)[C@H]3C(=O)C[C@@]21C [CORTISONE ACETATE] | 0.3
CC12C=CC(=O)C=C1[C@@H](Cl)CC1C3CC(O)[C@](O)(C(=O)CO)C3(C)CC(O)[C@@]12F (some centres undefined) | 400
CC(=O)OCC(=O)C1CCC2C3CCC4=CC(=O)CCC4(C)C3C(O)CC12C (centres undefined) | 0.3
C[C@H]1CC2C3CCC4=CC(=O)CCC4(C)[C@@]3(F)C(O)CC2(C)[C@@]1(O)C(=O)CO (some centres undefined) | 23
